From patent US20120238562A1, “TREATMENT OF CANCER BY TARGETING MOLECULES THAT INFLUENCE MST1/STK4 SIGNALING” (CEDARS-SINAI MEDICAL CENTER, priority 2011, published 2012) come the findings set out here.

Holding throughout (format): cell-based, human
The test system of one assay is C4-2 cells. Briefly: Cell proliferation by MTS assay, C4-2 cells. As to conditions: for C4-2 cell growth / proliferation vs control (MTS, A490 nm): 48 h post treatment, vs DMSO, Ku0063794 1 μM, rapamycin 1 μM (p<0.1), BEZ-235 0.5 μM (p<0.002). The protocol: A, B) LNCaP (A) or C4-2 (B) cells were treated with control (DMSO), LY294002 (20 μM), Ku0063794 (1 μM), rapamycin (1 μM), LY294002+Ku0063794, or LY294002+Rapamycin. C) C4-2 cells were treated with DMSO or the dual PI3K and mTOR inhibitor, BEZ-235 (0.5 μM). Control or drug treatments were performed in T-medium supplemented with 5% FBS and 1% Pen/Strep. Cell proliferation was determined by MTS assay (A490 nm) at 48 h post treatment. D) Levels of endogenous total Mst1 by western blot in cytoplasmic (C) and nuclear (N) fractions from C4-2 cells that were transfected with scramble or Mst1 specific SiRNa. B-actin was used as a loading control. E) Effects of DMSO or CCI-779 on C4-2 cell proliferation with scramble or MSt1 knockdown conditions. Cell proliferation was determined by MTS (A490 nm) at 72 h post transfection. Data are representative of multiple experiments.
Cell proliferation was measured using CellTiter 96 AQueous with MTS reagent (Promega, Madison, Wis.). Briefly, cells in RPMI-medium plus 10% fetal bovine serum were added to 96-well plates at 4,000 cells per well in quadruplicate. After 24 h, LY290042, Ku0063794, Rapamycin, CCI-779 or BEZ-235 alone or combined were added, and cells were cultured for the indicated time. DMSO was used as a control. At 24 h post siRNA transfection, cells were treated with DMSO control or CCI-779 and incubated up to 72 h. MTS and phenazine methosulfate solution (20 μL/well) was added and the absorbance at 490 nm was recorded using a microplate reader (BMG Labtech; Cary, N.C.). For the clonogenic assay, 500 cells per well were seeded and cultured in 6-well plates for a week in the presence of Dox (0.5 μg/mL) in serum-fed conditions. The medium was changed every 3 days. Colonies were fixed with formaldehyde (4% v/v) and stained with crystal violet (0.5%). Representative views from triplicate experiments were photographed and quantified. […] After 14 days, colonies were photographed and quantified. […]

A further assay has as its system Akt. The assay can be described thus: Akt activation in C4-2 cells under mTOR inhibition. Conditions: castration-resistant prostate cancer cells (C4-2), same conditions as Mst1-T120 hyper-phosphorylation. The method, then:
A) Schematic representation of the GST-Mst1 peptide with wild type (wt) T120 or T120A mutations. B) In vitro kinase assay with bacterially expressed and purified GST-only, GST-Mst1-T120 wt, or GST-Mst1-T120A mutant peptide and the recombinant pre-activated Akt kinase. Western blots were probed with pMst1-T120 antibody. Ponceau S stained purified GST, GST-Mst1-T120, or GST-Mst1-T120A mutant peptide. C) LNCaP cells were treated with DMSO (vehicle) control, a specific PI3K inhibitor, LY294002 (20 μM), or mTOR inhibitor, Ku0063794 (1 μM) in serum-starved conditions. D) C4-2 cells were treated with Temsirolimus (CCI-779), an mTORC1 inhibitor (1 μM) in addition to DMSO, LY294002 and Ku0063794 under the same experimental conditions as in “C”. E) C4-2 cells treated with DMSO or LY294002 and CCI-779. Control/DMSO or drug treatment in “C,” “D,” or “E” was performed under serum-deprived conditions. Western blots were probed with antibodies to corresponding proteins at 3 h post treatment. Lam-A/C:Lamin-A/C. Data are representative of multiple experiments.
Consistent with this finding, PI3K and mTORC1 inhibition combined synergistically to prevent the proliferation of C4-2 cells compared to a single agent (FIG. 3B). […]

The next assay deals with Mst1. Briefly: Western blot of Mst1 nuclear accumulation in C4-2 cells. As to conditions: Ku0063794 1 μM or CCI-779 1 μM, 3 h post treatment. The method, then:
A) Schematic representation of the GST-Mst1 peptide with wild type (wt) T120 or T120A mutations. B) In vitro kinase assay with bacterially expressed and purified GST-only, GST-Mst1-T120 wt, or GST-Mst1-T120A mutant peptide and the recombinant pre-activated Akt kinase. Western blots were probed with pMst1-T120 antibody. Ponceau S stained purified GST, GST-Mst1-T120, or GST-Mst1-T120A mutant peptide. C) LNCaP cells were treated with DMSO (vehicle) control, a specific PI3K inhibitor, LY294002 (20 μM), or mTOR inhibitor, Ku0063794 (1 μM) in serum-starved conditions. D) C4-2 cells were treated with Temsirolimus (CCI-779), an mTORC1 inhibitor (1 μM) in addition to DMSO, LY294002 and Ku0063794 under the same experimental conditions as in “C”. E) C4-2 cells treated with DMSO or LY294002 and CCI-779. Control/DMSO or drug treatment in “C,” “D,” or “E” was performed under serum-deprived conditions. Western blots were probed with antibodies to corresponding proteins at 3 h post treatment. Lam-A/C:Lamin-A/C. […]
A nuclear extraction kit according to the manufacturer's protocol (Affymetrix, Santa Clara, Calif.) was used to isolate cytoplasmic and nuclear fractions. […] Protein concentrations were determined by the Lowry method (Bio-Rad, Hercules, Calif.). […] Signals were detected using SuperSignal West Pico Chemiluminescence Substrate (Thermo Scientific, Roxford, Ill.). […]
On the technique in general: A western blot detects proteins with antibodies after separation by electrophoresis.

Assay [1] deals with Mst1-T120 phosphorylation. Briefly: Western blot of Mst1-T120 phosphorylation in cytoplasmic and nuclear fractions of C4-2 cells. As to conditions: serum-deprived, 3 h post treatment, vs DMSO control, LY294002 20 μM, Ku0063794 1 μM, CCI-779 1 μM. The method, then:
(§1) A) Schematic representation of the GST-Mst1 peptide with wild type (wt) T120 or T120A mutations. B) In vitro kinase assay with bacterially expressed and purified GST-only, GST-Mst1-T120 wt, or GST-Mst1-T120A mutant peptide and the recombinant pre-activated Akt kinase. Western blots were probed with pMst1-T120 antibody. Ponceau S stained purified GST, GST-Mst1-T120, or GST-Mst1-T120A mutant peptide. C) LNCaP cells were treated with DMSO (vehicle) control, a specific PI3K inhibitor, LY294002 (20 μM), or mTOR inhibitor, Ku0063794 (1 μM) in serum-starved conditions. […]
(§2) A nuclear extraction kit according to the manufacturer's protocol (Affymetrix, Santa Clara, Calif.) was used to isolate cytoplasmic and nuclear fractions. […] Protein concentrations were determined by the Lowry method (Bio-Rad, Hercules, Calif.). […] Signals were detected using SuperSignal West Pico Chemiluminescence Substrate (Thermo Scientific, Roxford, Ill.).
(§3) The inventors generated GST-Mst1 peptide with T120-wt or T120A mutations (FIG. 2A). […] The inventors then assessed the effects of PI3K-Akt inhibition on Mst1-T120 phosphorylation in its respective location in the cell. […] The levels of phospho-Mst1-T120 were assessed by western blot in cytoplasmic and nuclear fractions. […]

Assay [2] relates to Mst1-T183 phosphorylation. Briefly: Mst1-T183 phosphorylation in treated prostate cancer cells. Conditions: prostate cancer cells treated with inhibitor. The protocol: However, the levels of […] phosphorylation were unchanged when cells were treated with a potent mTOR inhibitor, Ku0063794, (FIG. 3). […] Based on these observations, the inventors therefore conclude that Mst1-phosphorylation at T120 or at […] are unrelated events or is modulated by different mechanisms, at least in prostate cancer cells.

In assay [3] the test system is Mst1-T120 phosphorylation. The assay can be described thus: Western blot of Mst1-T120 phosphorylation in cytoplasmic and nuclear fractions of LNCaP cells. As to conditions: serum-starved, 3 h post treatment, vs DMSO control, LY294002 20 μM, Ku0063794 1 μM. The method, then: as §1, §2, §3

Entries after “also recorded” stand apart in the source; their conditions may differ.

As for `Cn1c(=O)n(-c2ccc(C(C)(C)C#N)cc2)c2c3cc(-c4cnc5ccccc5c4)ccc3ncc21` [BEZ-235], the “C4-2 cell growth / proliferation vs control (MTS, A490 nm)” value in the assay with C4-2 cells is given as “significantly inhibited”.

As to `CO[C@H]1C[C@@H]2CC[C@@H](C)[C@@](O)(O2)C(=O)C(=O)N2CCCC[C@H]2C(=O)O[C@H]([C@H](C)C[C@@H]2CC[C@@H](OC(=O)C(C)(CO)CO)[C@H](OC)C2)CC(=O)[C@H](C)/C=C(\C)[C@@H](O)[C@@H](OC)C(=O)[C@H](C)C[C@H](C)/C=C/C=C/C=C/1C` [CCI-779, temsirolimus], the Akt activation result with Akt is “did not observe Akt activation”. Moreover, the Mst1 nuclear accumulation entry in the assay on Mst1 was “increase”. Besides, in assay [1], the Mst1-T120 phosphorylation result is recorded as “hyper-phosphorylation; also recorded: hyperphosphorylation”. For the same compound, the “C4-2 cell proliferation under Mst1 knockdown vs scramble siRNA (MTS, A490 nm)” value in the assay on C4-2 cells (Mst1 siRNA vs scramble siRNA, CCI-779 vs DMSO, 72 h post transfection) is recorded as “sensitized”.

For `COc1ccc(-c2ccc3c(N4CCOCC4)nc(N4C[C@@H](C)O[C@@H](C)C4)nc3n2)cc1CO` [Ku0063794], the Akt activation entry in the assay with Akt is “did not observe Akt activation”. In addition, the Mst1 nuclear accumulation entry in the assay on Mst1 is “increase”. Moreover, the Mst1-T183 phosphorylation entry in assay [2] was “unchanged”. Moreover, in assay [1], the Mst1-T120 phosphorylation entry is listed as “hyper-phosphorylation; also recorded: hyperphosphorylation”. The “Mst1-T120 phosphorylation in cell nuclei” value in assay [3] was “unable to prevent”. Also, the “C4-2 cell growth / proliferation vs control (MTS, A490 nm)” value in the assay on C4-2 cells is reported as “failed to significantly inhibit”.
